Measurements published in paper PMC6752721 (Chembiochem : a European journal of chemical biology, 2019).
Where a SMILES comes first, the peptide text is derived from it. [ ]: non-standard residue; d: D form. The star is where a group is joined. Decanoyl = CCCCCCCCCC(=O)*; Orn = NCCC[C@H](N)C(=O)O; Dap = NC[C@H](N)C(=O)O; NHDecyl = CCCCCCCCCCN*

Tests used:
HeLa cells [1] = test: Cytosolic entry efficiency of naphthofluorescein; type: cell-based; conditions: 10% FBS, flow cytometry; for fold decrease in CPP activity (cellular entry efficiency) relative to peptide 4 / fold increase in CPP activity (cellular entry efficiency) relative to peptide 4: 5 μM NF-labeled peptide, 2 h
HeLa cells [2] = test: MTT cytotoxicity assay; type: cell-based

fold decrease in CPP activity (cellular entry efficiency) relative to peptide 4 (HeLa cells [1]) | fold increase in CPP activity (cellular entry efficiency) relative to peptide 4 (HeLa cells [1]) | SMILES | further results
~5 fold | – | CCCCCCCCCC(=O)NC[C@@H]1NC(=O)[C@H](CCC(N)=O)NC(=O)[C@H](CCCNC(=N)N)NC(=O)[C@H](CCCNC(=N)N)NC(=O)[C@H](CCCNC(=N)N)NC(=O)[C@H](CCCNC(=N)N)NC(=O)[C@H](CCCNC(=N)N)NC1=O [peptide 14] | –
– | 1.3 fold | CCCCCCCCCC(=O)NCCCC[C@@H]1NC(=O)[C@H](CCC(N)=O)NC(=O)[C@H](CCCNC(=N)N)NC(=O)[C@H](CCCNC(=N)N)NC(=O)[C@H](CCCNC(=N)N)NC(=O)[C@H](CCCNC(=N)N)NC1=O [peptide 16] (cyclo(K(Decanoyl)RRRRQ)) | –
– | 2 fold | CCCCCCCCCC(=O)NCCC[C@@H]1NC(=O)[C@H](CCC(N)=O)NC(=O)[C@H](CCCNC(=N)N)NC(=O)[C@H](CCCNC(=N)N)NC(=O)[C@H](CCCNC(=N)N)NC(=O)[C@H](CCCNC(=N)N)NC1=O [compound 15] (cyclo([Orn](Decanoyl)RRRRQ)) | –
~ 3 fold | – | CCCCCCCCCC(=O)NC[C@@H]1NC(=O)[C@H](CCC(N)=O)NC(=O)[C@H](CCCNC(=N)N)NC(=O)[C@@H](CCCNC(=N)N)NC(=O)[C@H](CCCNC(=N)N)NC(=O)[C@@H](CCCNC(=N)N)NC1=O [compound 10] (cyclo([Dap](Decanoyl)[dR]R[dR]RQ)) | –
– | ~ 5 fold | CCCCCCCCCCNC(=O)C[C@@H]1NC(=O)[C@H](CCC(N)=O)NC(=O)[C@H](CCCNC(=N)N)NC(=O)[C@H](CCCNC(=N)N)NC(=O)[C@H](CCCNC(=N)N)NC(=O)[C@H](CCCNC(=N)N)NC1=O [peptide 17] (cyclo(D(NHDecyl)RRRRQ)) | fold more active than CPP12 (cellular entry efficiency) (HeLa cells [1]): 2.8 fold; reduction of cell viability (HeLa cells [2]; ≤25 μM peptide, not concentration-dependent): ~ 30%; effect on cell viability at higher concentrations (HeLa cells [2]; ≥50 μM peptide): significant loss of HeLa cell viability
~ 3 fold | – | CCCCCCCCCC(=O)NC[C@@H]1NC(=O)[C@H](CCC(N)=O)NC(=O)[C@@H](CCCNC(=N)N)NC(=O)[C@H](CCCNC(=N)N)NC(=O)[C@@H](CCCNC(=N)N)NC(=O)[C@H](CCCNC(=N)N)NC1=O [compound 9] (cyclo([Dap](Decanoyl)R[dR]R[dR]Q)) | –
~ 2 fold | – | CCCCCCCCCC(=O)NC[C@@H]1NC(=O)[C@H](CCC(N)=O)NC(=O)[C@H](CCCNC(=N)N)NC(=O)[C@H](CCCNC(=N)N)NC(=O)[C@H](CCCNC(=N)N)NC(=O)[C@H](C)NC1=O [compound 12] (cyclo(ARRRQ[Dap](Decanoyl))) | –
